Measured values from patent US20250025443A1, “COMPOUNDS AND METHODS FOR TREATING CORONA VIRUSES” (CLEAR CREEK BIO, INC., priority 2021, published 2025).
Where two headings read alike, the source gives them in different places.

Molecular target: SARS-CoV-2 Papain-Like Protease (PLpro) (Severe acute respiratory syndrome coronavirus 2 (2019-nCoV) (SARS-CoV-2), UniProt P0DTD1)
Assay: biochemical
[1] = SARS-CoV-2 PLpro enzymatic fluorescence assay, read-out: PLpro IC50
[2] = PLpro enzymatic fluorescence assay, class symbols, read-out: PLpro IC50

Structure (SMILES) | IC50 [1] | other results
Cc1ccc(C2(NC(=O)c3cc(OCCN(C)C)ccc3C)CC2)cc1 [Compound 253, 5-(2-(Dimethylamino)ethoxy)-2-methyl-N-(1-(p-tolyl)cyclopropyl)benzamide] | > 5000 nM | 
Cc1ccc(OCCN2CCCCC2)cc1C(=O)NC1(c2cccc3ccccc23)CC1 [Compound 254, 2-Methyl-N-(1-(naphthalen-1-yl)cyclopropyl)-5-(2-(piperidin-1-yl)ethoxy)benzamide] | < 100 nM | 
Cc1cccc(C2(NC(=O)c3cc(OCCN(C)C)ccc3C)CC2)c1 [Compound 255, 5-(2-(Dimethylamino)ethoxy)-2-methyl-N-(1-(m-tolyl)cyclopropyl)benzamide] | > 5000 nM | 
Cc1ccc(OCC2(N)CC2)cc1C(=O)NC1(c2cccc3ccccc23)CC1 [Compound 256] | < 100 nM | 
Cc1ccc(C(N)=O)cc1C(=O)NC1(c2cccc3ccccc23)CC1 [Compound 257] | 100 to 1000 nM | 
Cc1ccc(OCCN(C)C)cc1C(=O)NC1(c2ccc(Br)cc2)CC1 [Compound 258, N-(1-(4-Bromophenyl)cyclopropyl)-5-(2-(dimethylamino)ethoxy)-2-methylbenzamide] | > 5000 nM | 
Cc1ccc(OCCN(C)C)cc1C(=O)NC1(c2ccc(F)cc2)CC1 [Compound 259, 5-(2-(Dimethylamino)ethoxy)-N-(1-(4-fluorophenyl)cyclopropyl)-2-methylbenzamide] | > 5000 nM | 
Cc1cc2cc(C3COCCN3)[nH]c2cc1C(=O)NC1(c2cccc3ccccc23)CC1 (stereo not drawn) [Compound 260, 5-Methyl-2-(morpholin-3-yl)-N-(1-(naphthalen-1-yl)cyclopropyl)-1H-indole-6-carboxamide] | 100 to 1000 nM | 
Cc1ccc(OCCN(C)C)cc1C(=O)NC1(c2cccc(Br)c2)CC1 [Compound 261, N-(1-(3-Bromophenyl)cyclopropyl)-5-(2-(dimethylamino)ethoxy)-2-methylbenzamide] | 1000 to 5000 nM | 
Cc1cc2c(cc1C(=O)NC1(c3cccc4ccccc34)CC1)NCC2(C)C [Compound 262, 3,3,5-Trimethyl-N-(1-(naphthalen-1-yl)cyclopropyl)indoline-6-carboxamide] | 100 to 1000 nM | 
Cc1ccc(OCC2CCCN2)cc1C(=O)NC1(c2cccc3ccccc23)CC1 (stereo not drawn) [Compound 263, 2-Methyl-N-(1-(naphthalen-1-yl)cyclopropyl)-5-(pyrrolidin-2-ylmethoxy)benzamide] | < 100 nM | 
Cc1ccc(OCCN(C)C)cc1C(=O)NC1(c2cccc(C3=CCCC3)c2)CC1 [Compound 264, N-(1-(3-(Cyclopent-1-en-1-yl)phenyl)cyclopropyl)-5-(2-(dimethylamino)ethoxy)-2-methylbenzamide] | 1000 to 5000 nM | 
Cc1ccc(OC2CC(N)C2)cc1C(=O)NC1(c2cccc3ccccc23)CC1 (stereo not drawn) [Compound 265, 5-(3-Aminocyclobutoxy)-2-methyl-N-(1-(naphthalen-1-yl)cyclopropyl)benzamide] | 100 to 1000 nM | 
Cc1ccc(OCCN(C)C)cc1C(=O)NC1(c2ccccc2-c2ccncc2)CC1 [Compound 266, 5-(2-(Dimethylamino)ethoxy)-2-methyl-N-(1-(2-(pyridin-4-yl)phenyl)cyclopropyl)benzamide] | > 5000 nM | 
Cc1ccc(OCCN(C)C)cc1C(=O)NC1(c2ccccc2-c2ccccc2)CC1 [Compound 267, N-(1-([1,1′-Biphenyl]-2-yl)cyclopropyl)-5-(2-(dimethylamino)ethoxy)-2-methylbenzamide] | > 5000 nM | 
Cc1ccc(OC2CCCNC2)cc1C(=O)NC1(c2cccc3ccccc23)CC1 (stereo not drawn) [Compound 268, 2-Methyl-N-(1-(naphthalen-1-yl)cyclopropyl)-5-(piperidin-3-yloxy)benzamide] | 100 to 1000 nM | 
CN(C)CCOc1ccc(Br)c(C(=O)NC2(c3cccc4ccccc34)CC2)c1 [Compound 269, 2-Bromo-5-(2-(dimethylamino)ethoxy)-N-(1-(naphthalen-1-yl)cyclopropyl)benzamide] | 100 to 1000 nM | 
Cc1ccc(OCCN(C)C)cc1C(=O)NC1(c2cccc(Oc3ccccc3)c2)CC1 [Compound 270, 5-(2-(Dimethylamino)ethoxy)-2-methyl-N-(1-(3-phenoxyphenyl)cyclopropyl)benzamide] | > 5000 nM | 
COc1ccc(C2(NC(=O)c3cc(OCCN(C)C)ccc3C)CC2)cc1 [Compound 271, 5-(2-(Dimethylamino)ethoxy)-N-(1-(4-methoxyphenyl)cyclopropyl)-2-methylbenzamide] | > 5000 nM | 
Cc1ccc(OCCN(C)C)cc1C(=O)NC1(c2ccccc2F)CC1 [Compound 272, 5-(2-(Dimethylamino)ethoxy)-N-(1-(2-fluorophenyl)cyclopropyl)-2-methylbenzamide] | > 5000 nM | 
Cc1cc2cc(C(C)N)[nH]c2cc1C(=O)NC1(c2cccc3ccccc23)CC1 (stereo not drawn) [Compound 273, 2-(1-Aminoethyl)-5-methyl-N-(1-(naphthalen-1-yl)cyclopropyl)-1H-indole-6-carboxamide] | < 100 nM | 

Structure (SMILES) | IC50 [1] | other results
Cc1ccc(OCC2CCN2)cc1C(=O)NC1(c2cccc3ccccc23)CC1 (stereo not drawn) [Compound 274, 5-(Azetidin-2-ylmethoxy)-2-methyl-N-(1-(naphthalen-1-yl)cyclopropyl)benzamide] | < 100 nM | 
Cc1ncc(OCCN(C)C)cc1C(=O)NC1(c2cccc3ccccc23)CC1 [Compound 275, 5-(2-(Dimethylamino)ethoxy)-2-methyl-N-(1-(naphthalen-1-yl)cyclopropyl)nicotinamide] | 1000 to 5000 nM | 
Cc1ccc(OCCN(C)C)cc1C(=O)NC1(c2cccc(C3CCCC3)c2)CC1 [Compound 276, N-(1-(3-Cyclopentylphenyl)cyclopropyl)-5-(2-(dimethylamino)ethoxy)-2-methylbenzamide] | > 5000 nM | 
COc1ccccc1C1(NC(=O)c2cc(OCCN(C)C)ccc2C)CC1 [Compound 277, 5-(2-(Dimethylamino)ethoxy)-N-(1-(2-methoxyphenyl)cyclopropyl)-2-methylbenzamide] |  | IC50 [2]: > 5000 nM
COc1cccc(C2(NC(=O)c3cc(OCCN(C)C)ccc3C)CC2)c1 [Compound 278, 5-(2-(Dimethylamino)ethoxy)-N-(1-(3-methoxyphenyl)cyclopropyl)-2-methylbenzamide] |  | IC50 [2]: > 5000 nM
Cc1ccc(OCCN(C)C)cc1C(=O)NC1(c2ccc(Oc3ccccc3)cc2)CC1 [Compound 279, 5-(2-(Dimethylamino)ethoxy)-2-methyl-N-(1-(4-phenoxyphenyl)cyclopropyl)benzamide] | 1000 to 5000 nM | 
Cc1cc2nc(CN)[nH]c2cc1C(=O)NC1(c2cccc3ccccc23)CC1 [Compound 280, 2-(Aminomethyl)-5-methyl-N-(1-(naphthalen-1-yl)cyclopropyl)-1H-benzo[d]imidazole-6-carboxamide] | 100 to 1000 nM | 
Cc1cc2cc(CN)[nH]c2cc1C(=O)NC(C)(C)c1cccc2ccccc12 [Compound 281] | > 5000 nM | 
Cc1ccc(OCCN(C)C)cc1C(=O)NC1(c2ccccc2C)CC1 [Compound 282, 5-(2-(Dimethylamino)ethoxy)-2-methyl-N-(1-(o-tolyl)cyclopropyl)benzamide] | 1000 to 5000 nM | 
Cc1ccc(OCC2CCCN2C)cc1C(=O)NC1(c2cccc3ccccc23)CC1 (stereo not drawn) [Compound 283, 2-Methyl-5-((1-methylpyrrolidin-2-yl)methoxy)-N-(1-(naphthalen-1-yl)cyclopropyl)benzamide] | < 100 nM | 
Cc1ccc(OCCN2CCC(F)(F)CC2)cc1C(=O)NC1(c2cccc3ccccc23)CC1 [Compound 284, 5-(2-(4,4-Difluoropiperidin-1-yl)ethoxy)-2-methyl-N-(1-(naphthalen-1-yl)cyclopropyl)benzamide] | 100 to 1000 nM | 
Cc1ccc(OCC(N)=O)cc1C(=O)NC1(c2cccc3ccccc23)CC1 [Compound 285, 5-(2-Amino-2-oxoethoxy)-2-methyl-N-(1-(naphthalen-1-yl)cyclopropyl)benzamide] | 100 to 1000 nM | 
Cc1ccc(OCC2COCCN2)cc1C(=O)NC1(c2cccc3ccccc23)CC1 (stereo not drawn) [Compound 286, 2-Methyl-5-(morpholin-3-ylmethoxy)-N-(1-(naphthalen-1-yl)cyclopropyl)benzamide] | < 100 nM | 
Cc1ccc(OCC2CCCCN2C)cc1C(=O)NC1(c2cccc3ccccc23)CC1 (stereo not drawn) [Compound 288, 2-Methyl-5-((1-methylpiperidin-2-yl)methoxy)-N-(1-(naphthalen-1-yl)cyclopropyl)benzamide] | 100 to 1000 nM | 
Cc1ccc(OC2CCCN(C)C2)cc1C(=O)NC1(c2cccc3ccccc23)CC1 (stereo not drawn) [Compound 289, 2-Methyl-5-((1-methylpiperidin-3-yl)oxy)-N-(1-(naphthalen-1-yl)cyclopropyl)benzamide] | 100 to 1000 nM | 
Cc1cc2ccn(C3CN(C)C3)c2cc1C(=O)NC1(c2cccc3ccccc23)CC1 [Compound 290, 5-Methyl-1-(1-methylazetidin-3-yl)-N-(1-(naphthalen-1-yl)cyclopropyl)-1H-indole-6-carboxamide] | < 100 nM | 
Cc1ccc(OCCN(C)C)cc1C(=O)NC1(c2cccc(-c3ccccc3)c2)CC1 [Compound 291, N-(1-([1,1′-Biphenyl]-3-yl)cyclopropyl)-5-(2-(dimethylamino)ethoxy)-2-methylbenzamide] | 100 to 1000 nM | 
Cc1cc2c(CCN)c[nH]c2cc1C(=O)NC1(c2cccc3ccccc23)CC1 [Compound 292, 3-(2-Aminoethyl)-5-methyl-N-(1-(naphthalen-1-yl)cyclopropyl)-1H-indole-6-carboxamide] |  | IC50 (PLpro IC50, SARS-CoV-2 PLpro enzymatic fluorescence assay): 100 to 1000 nM
Cc1ccc(OC2CCCCN(C)C2)cc1C(=O)NC1(c2cccc3ccccc23)CC1 (stereo not drawn) [Compound 293, 2-methyl-5-((1-methylazepan-3-yl)oxy)-N-(1-(naphthalen-1-yl)cyclopropyl)benzamide] | 100 to 1000 nM | 
Cc1ccc(OCCN(C)C)cc1C(=O)NC1(c2ccc(O)cc2)CC1 [Compound 294, 5-(2-(Dimethylamino)ethoxy)-N-(1-(4-hydroxyphenyl)cyclopropyl)-2-methylbenzamide] | > 5000 nM | 
Cc1cc2ccn(CC3COC3)c2cc1C(=O)NC1(c2cccc3ccccc23)CC1 [Compound 295, 5-Methyl-N-(1-(naphthalen-1-yl)cyclopropyl)-1-(oxetan-3-ylmethyl)-1H-indole-6-carboxamide] | 100 to 1000 nM | 
